One assay concerns the target T1, PKG-1α (Homo sapiens, UniProt Q13976, Y247F).
T1 sequence (Q13976 2-671 Y247F): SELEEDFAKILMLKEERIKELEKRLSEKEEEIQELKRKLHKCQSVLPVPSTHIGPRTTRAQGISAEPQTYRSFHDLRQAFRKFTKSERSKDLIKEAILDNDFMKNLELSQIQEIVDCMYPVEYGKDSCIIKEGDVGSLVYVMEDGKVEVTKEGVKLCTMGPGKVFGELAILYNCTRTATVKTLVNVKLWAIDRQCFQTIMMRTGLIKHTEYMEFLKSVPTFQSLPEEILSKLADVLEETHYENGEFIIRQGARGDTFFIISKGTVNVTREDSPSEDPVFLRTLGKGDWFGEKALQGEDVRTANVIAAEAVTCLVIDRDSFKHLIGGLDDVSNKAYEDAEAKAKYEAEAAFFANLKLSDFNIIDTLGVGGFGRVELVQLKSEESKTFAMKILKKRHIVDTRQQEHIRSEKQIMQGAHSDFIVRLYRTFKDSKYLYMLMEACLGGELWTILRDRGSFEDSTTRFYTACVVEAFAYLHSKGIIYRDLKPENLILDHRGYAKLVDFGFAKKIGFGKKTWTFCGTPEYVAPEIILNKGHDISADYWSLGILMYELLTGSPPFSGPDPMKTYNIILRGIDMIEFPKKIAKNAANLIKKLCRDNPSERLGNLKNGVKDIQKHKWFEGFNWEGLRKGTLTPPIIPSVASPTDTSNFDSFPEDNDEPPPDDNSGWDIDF
Put plainly: [3H]cGMP dissociation/exchange assay. It counts as binding. The following applies: SIN-1 500 μM 30 min. Here is the method:
WT- and Y247F-PKG-1α were immunopurified, as described above then incubated for 60 min at room temperature with 3 ml of cGMP-binding assay mixture containing 3 μM [^3H]cGMP. This incubation time and dose has been previously experimentally determined to be adequate for the saturation of the cGMP-binding sites in PKG. After incubation, the samples were cooled to 4° C. and divided into 200 μl aliquots per tube. The addition of 100-fold excess unlabeled cGMP at time 0 sec (Bo) initiated the dissociation (exchange) of the bound [^3H]cGMP. The cGMP exchange in each tube was stopped at the appropriate time point by the addition of 2 ml of cold aqueous saturated (NH4)2SO4. The samples were filtered, washed, and the portion of bound [^3H]cGMP at any time point was determined, as described previously.

The test system of assay [1] is Pulmonary artery smooth muscle cells (PASMC). Put plainly: PASMC phenotype markers (Western blot, immunocytochemistry). It counts as cell-based, lamb. The following applies: SIN-1 500 μM 48 h. Here is the method: Cells were prepared as previously described (Sud, N., et al., American Journal of Physiology 293, L1444-1453 (2007); Sharma, S., et al., American Journal of Physiology 294, L46-56 (2008)). Briefly, the cellular protein extracts were prepared by homogenizing the cells in lysis buffer (50 mM Tris-HCl, pH 7.6, 0.5% Triton X-100, and 20% glycerol) containing Halt protease inhibitor cocktail (Pierce, Rockford, Ill.). The extracts were then clarified by centrifugation (20,000 g for 20 min at 4° C.). The supernatant fractions were assayed for protein concentration using the Bio-Rad DC Protein Assay (Bio-Rad Laboratories, Hercules, Calif.) and used for Western blot analysis. Similarly, peripheral lung tissue from the control lambs and the lambs with pulmonary hypertension secondary to increased pulmonary blood flow (shunt) was prepared as described earlier (Aggarwal, S., et al., Journal of Cellular Physiology (2011)). Cell extracts ([…]) were resolved using 4-20% Tris-SDS-Hepes PAGE, electrophoretically transferred to Immuno-Blot™ PVDF membrane (Bio-Rad Laboratories, Hercules, Calif.), and then blocked with 5% nonfat dry milk in Tris buffered saline. The membranes were then probed with antibodies against PKG-1α (1:500 dilution), anti-nitrotyrosine 247-PKG-1α (1:500), Calponin-1 (1:500 dilution), Vimentin (1:500 dilution), or MYH (1:500 dilution). Reactive bands were visualized using chemi-luminescence (Pierce Laboratories, Rockford, Ill.) on a Kodak 440CF image station. The band intensity was quantified using Kodak 1D image processing software. The protein expression was normalized by re-probing with anti β-actin (1:2000).
Semi-confluent PASMC grown on a coverslip in a 6-well plate were transfected with a mammalian expression plasmid containing either a wild-type (WT)- or Y247F-PKG-1α cDNA. After 20 h, the cells were serum starved (1% FBS) for 4 h then exposed or not to SIN-1 (500 μM) for 48 h. The cells were washed with PBS, methanol fixed (5 min), and permeabilized in 0.1% PBS-Tween (20 min). […] The cells were rinsed 3× with PBS, and the coverslips were mounted on the slides with ProLong Gold Antifade and analyzed with the use of a Nikon Eclipse TE 300 inverted fluorescent microscope with a 60× oil objective and a Hamamatsu digital camera.
To assess the effect of nitration on pulmonary arterial smooth muscle cell (PASMC) phenotype, PASMC were transiently transfected with expression plasmids containing WT-PKG-1α, Y247F-PKG-1α, or PDEST40 (as a control) for 20 h. Cells were then exposed or not to SIN-1 (500 μM, 48 h) and the effect on synthetic and contractile markers determined. The levels of myosin heavy chain (MYH, FIG. 18A), Calponin-1 (FIG. 18B), and Vimentin (FIG. 18C) were determined. […]
(A western blot detects proteins with antibodies after separation by electrophoresis.)

In the case of “3-morpholinosydnonimine N-ethylcarbamide [SIN-1]”, the “[3H]cGMP exchange/dissociation from Y247F mutant” value at PKG-1α is recorded as “but not from the Y247F mutant”. In assay [1] (WT-PKG-1α expressing PASMC), the PCNA staining result was “increased” and the SM-22α expression result is listed as “attenuated”. Further, in assay [1] (WT-PKG-1α transfected PASMC), the “Expression of contractile markers MYH and Calponin-1” value is listed as “decreased”; the “Expression of proliferative marker Vimentin” value is given as “increased”.

For the origin of these results see patent US9447157B2, “Nitration shielding peptides and methods of use thereof” (Augusta University Research Institute, Inc., priority 2013, dated 2016).
